# From US20230405143A1, “TYROSINE-BASED ANTIBODY CONJUGATES” (Synaffix B.V., priority 2020, published 2023)
# Test: stability of linker-payload under acidic sample work-up and analysis (MS / RP-HPLC)
# Format: physicochemical
# Conditions: note to FIG. 26
# Experimental: Note: *BCN-HS-PEG2-va-PABC-PBD is not stable under the acidic conditions used in sample work-up and analysis. Therefore, some peak broadening is observed, so conversion was determined by the amount of starting material left.
# Prior to RP-HPLC analysis, IgG (10 μL, 1 mg/mL in PBS pH 7.4) was added to 12.5 mM DTT, 100 mM TrisHCl pH 8.0 (40 μL) and incubated for 15 minutes at 37° C. The reaction was quenched by adding 49% acetonitrile, 49% water, 2% formic acid (50 μL). RP-HPLC analysis was performed on an Agilent 1100 series (Hewlett Packard). The sample (10 μL) was injected with 0.5 mL/min onto Bioresolve RP mAb 2.1*150 mm 2.7 μm (Waters) with a column temperature of 70° C. A linear gradient was applied in 16.8 minutes from 30 to 54% acetonitrile in 0.1% TFA and water.
# Prior to mass spectral analysis, IgG was treated with IdeS, which allows analysis of the Fc/2 fragment. For analysis of the Fc/2 fragment, a solution of 20 μg (modified) IgG was incubated for 1 hour at 37° C. with IdeS/Fabricator™ (1.25 U/μL) in PBS pH 6.6 in a total volume of 10 μL. Samples were diluted to 80 μL followed by analysis electrospray ionization time-of-flight (ESI-TOF) on a JEOL AccuTOF. Deconvoluted spectra were obtained using Magtran software.
substance,measurement,value
BCN-HS-PEG2-va-PABC-PBD,stability under the acidic conditions used in sample work-up and analysis,not stable
